Experimental data: US11607417B2, “Uses of celastrol in preventing and/or treating cholestatic liver disease and liver fibrosis” (KUNMING INSTITUTE OF BOTANY, THE CHINESE ACADEMY OF SCIENCES, priority 2017, dated 2023)
Where “and” joins values, the source holds several entries; their conditions need not be identical. Identical values can stand only once.

System: ANIT-induced cholestatic liver injury
Assay: ANIT-induced mouse cholestatic liver injury (Example 1)
Assay type: in vivo, C57BL/6 mice
Description: A total of 18 male C57BL/6 mice were divided into three groups: blank group (n=6); model group (n=6); treatment group (n=6).
Celastrol was dissolved in a solvent to obtain a celastrol solution at a concentration of 2 mg/mL, wherein the solvent consisted of 1% DMSO, 2% Tween 80, and 97% water (v:v:v). For intragastrical administration, the dosage of celastrol was 10 mg/kg·d. ANIT was dissolved in corn oil to obtain a corn oil solution of ANIT at a concentration of 15 mg/mL, and the dosage of ANIT for intragastrical administration was 75 mg/kg.
The treatment group was intragastrically administered with the celastrol solution at a dosage of 10 mg/kg·d for five consecutive days. At the same time, the blank group and the model group were intragastrically administered with the same dosage of a solvent, wherein the solvent consisted of 1% DMSO, 2% Tween 80 and 97% water (v:v:v), and the solvent was administrated for five consecutive days.
On the third day of administration, ANIT model was established. 4 Hours after administration with the solvent or celastrol solution, the model group and the treatment group were respectively intragastrically administered with the ANIT corn oil solution to induce cholestatic liver injury at a dosage of 75 mg/kg for single administration, and the blank group was fed with an equal dosage of corn oil. After the model was established, the treatment group was continuously administrated with the celastrol solution, and the blank group and the model group was continuously administrated with the same dosage of solvent.
48 Hours after the model was established, the mice were sacrificed by CO2 anesthesia, and mouse livers and plasma samples were taken. The eyeballs of the mice were taken for blood collection. The plasma samples were placed on ice for 1-2 hours, centrifuged at 4000 g for 5 minutes at 4° C., and the supernatant was taken to determine the plasma biochemical indicators, the levels of ALT, AST and ALP.
At the same time, plasma samples were prepared: 10 μL of plasma sample was taken, mixed with 190 μL of 67% (v/v) acetonitrile (containing 5 μM internal standard chlorpropamide), centrifuged at 18000 g for 20 minutes at 4° C., and the supernatant was taken for sample injection.
Liver samples were prepared: 100 mg of liver samples were mixed well with 1 mL of 50% (v/v) acetonitrile (containing 5 μM internal standard chlorpropamide), shaken for 20 minutes at room temperature, and then centrifuged at 18000 g for 20 minutes at 4° C. Thereafter, 200 μL of the supernatant was taken and added with 200 μL of pure acetonitrile, vortexed for 1 minute, centrifuged at 18000 g for 20 minutes at 4° C., and the supernatant was taken for sample injection.
The liquid chromatography conditions were as follows: the injection volume was 5 μL; the column temperature was 45° C.; the flow rate of mobile phase was 0.3 mL/min; the gradient elution was that acetonitrile concentration changed from 2% to 98% during 16 minutes of operation, wherein the mobile phase (water/acetonitrile solution) contained 0.01% formic acid. The elution procedure was as follows: during 0-12th minute, the acetonitrile concentration changed from 2% to 98% at a constant rate; during 12-14th minute, the acetonitrile concentration was maintained at 98%; during 14-14.1th minute, the acetonitrile concentration changed from 98% to 2%; during 14.1-16th minute, the acetonitrile concentration was maintained at 2%. Mass spectrometry conditions were as follows: the temperature of dry gas was 350° C., the pressure of nebulizer was 35 psi, and the voltage of capillary was 3.5 kV.
Part of the collected mouse liver tissue was fixed overnight in formalin and tissue sections were stained with hematoxylin and eosin (H&E).

[1] = celastrol 10 mg/kg·d intragastric 5 days, ANIT 75 mg/kg on day 3, 48 h after ANIT, n=6
[2] = celastrol 10 mg/kg·d intragastric 5 days, ANIT 75 mg/kg, 48 h after ANIT, n=6

## CC1=C(O)C(=O)C=C2C1=CC=C1[C@@]2(C)CC[C@@]2(C)[C@@H]3C[C@](C)(C(=O)O)CC[C@]3(C)CC[C@]12C [celastrol, Celastrol]
CA, DCA, TβMCA/TαMCA, TCA, THDCA/TUDCA, celastrol 10 mg/kg·d, FIG. 1D
  Levels of bile acids in plasma vs ANIT model group: significantly lower
[1]
  Liver weight of mouse when sacrificed: 1.01 g and 1.01 ± 0.05 g
  Liver weight/body weight: 4.66% and 4.66 ± 0.23 %
[2]
  ALP in mouse plasma: 27.3 ± 3.7 U/l
  ALT in mouse plasma: 54.0 ± 36.4 U/l
  AST in mouse plasma: 72.0 ± 34.4 U/l
Celastrol 10 mg/kg·d intragastric, ANIT model, FIG. 1C
  H&E staining of mouse liver tissue: no obvious damage
ω-MCA, β-MCA, CA, DCA, TβMCA/TαMCA, TCA, GCA, TLCA, celastrol 10 mg/kg·d, FIG. 1E
  Levels of bile acids in liver vs ANIT model group: significantly lower
